In patent US20110124842A1 (priority 2003, published 2011):
Read-outs that look alike come from different tables or passages of the source.

Legend:
IgG 4E10 = experiment: Competitive ELISA (IC50): peptide competes with biotinylated 4E10-epitope peptide for IgG 4E10; format: binding, human
Procedure: IC50, were determined by competitive ELISA using a constant concentration of biotinylated peptide and IgG with a variable concentration of gp41 peptides. Microwells were coated overnight at 4° C. with 50 μl PBS containing neutravidin (Pierce; 4 μg/ml). […] A mixture of a biotinylated 4E10-epitope peptide, […](biotin)-NH2 (SEQ ID NO: 88) (20 nM), IgG 4E10 (0.2 nM), and the competing peptide analog (3-fold dilution series starting at 10 μM) in 0.4% non-fat dry milk, 0.02% Tween and PBS was incubated in a separate 96-well plate at 37° C. for 2 hours. After washing the blocked plate, the mixture of 4E10, biotinylated peptide and competing peptide was added to the wells. After 20 minutes at room temperature, the Wells were washed five times, and a 1:500 dilution of goat anti-human IgG F(ab′)2 HRP conjugate (Pierce) was added. Following incubation at RT for 40 minutes, the wells were washed five times, and developed by adding 50 μl of TMB solution (Pierce) according to the manufacturer's instructions. After ˜20 minutes, wells containing TMB solution were stopped by adding 50 μl of H2SO4 (2M) and the O.D. at 450 nm was read on a microplate reader (Molecular Devices). The concentration of competitor peptide corresponding to a half-maximal signal (IC50) was determined by interpolation of the resulting binding curve. Each peptide competitor was tested in duplicate in at least two separate experiments.
IC50s were determined by competitive ELISA using a constant concentration of biotinylated peptide and IgG with a variable concentration of gp41 peptides. Microwells were coated overnight at 4° C. with 50 μl PBS containing neutravidin (Pierce; 4 μg/ml). […] Meanwhile, a mixture of a biotinylated 4E10-peptide epitope, […](biotin)-NH2 (SEQ ID NO: 88), (20 nM), IgG 4E10 (0.2 nM), and the competing peptide analogue (3-fold dilution series starting at 10 μM) in 0.4% NFDM, 0.02% Tween and PBS was incubated in a separate 96-well plate at 37° C. for 2 h. After washing the blocked plate, the mixture of 4E10, biotinylated peptide and competing peptide was added to the wells. After 20 min at room temperature, the wells were washed five times, and a 1:500 dilution of goat anti-human IgG F(ab′)2 HRP conjugate (Pierce) was added. Following incubation at RT for 40 min, the wells were washed five times, and developed by adding 50 μl of H2SO4 (2 M), and the O.D. at 450 nm was read on a microplate reader (Molecular Devices). The concentration of competitor peptide corresponding to a half-maximal signal (IC50) was determined by interpolation of the resulting binding curve. Each peptide competitor was tested in duplicate in at least two separate experiments.

Fab 4E10 = experiment: Surface plasmon resonance (Biacore 2000), Fab 4E10 on CM5 chip; format: binding, human
Procedure: The affinitiefs of the peptide analogs for 4E10 were also measured by surface plasmon resonance. Surface plasmon resonance experiments were performed using a Biacore 2000 instrument (Uppsala, Sweden). Around 2,200 response units (RU) of Fab 4E10 were coated on CM5 chips. The carboxyl groups on the chip were activated with 1-ethyl-3-(3-dimethylaminopropyl)carbodiimide hydrochloride (EDC) and N-hydroxysuccinimide (NHS). Fifty micrograms of Fab were diluted in 10 mM sodium acetate pH 4.5; a flow rate of 5 μl/min was used. Unreacted carboxyl groups were blocked with 1M ethanolamine at pH 8.5. The control was treated in the same fashion without any antibody present. Different amounts of free peptides were then passed over the surfaces at 30 or 50 μl/min for 2 min. Regeneration was done in HPS-EP buffer, 0.25 NaCl (Biacore) in 10 minutes. The amount of salt was increased compared to the commercial buffer to reduce the non-specific binding. For data evaluation, the BIAevaluation software was used. RI and Rmax were controlled, double referencing were done (0 concentration and start point). Analyses were performed to achieve the best curve fitting and small chi^2 (<1).
Surface plasmon resonance experiments were performed using a Biacore 2000 instrument (Uppsala, Sweden).
Chip preparation: around 2,200 response units (RU) of Fab 4E10 were coated on CM5 chips. The carboxyl groups on the chip were activated with 1-ethyl-3-(3-dimethylaminopropyl) carbodiimide hydrochloride (EDC) and N-hydroxysuccinimide (NHS). Fifty micrograms of Fab was diluted in 10 mM sodium acetate pH 4.5; a flow rate of 5 μl/min was used. Unreacted carboxyl groups were blocked with 1M ethanolamine at pH 8.5. The control was treated in the same fashion without any antibody present.
Experiment: different amounts of free peptides were then passed over the surfaces at 30 or 50 μl/min for 2 min. Regeneration was done in HPS-EP buffer, 0.25 NaCl (Biacore) in 10 min. The amount of salt was increased compared to the commercial buffer to reduce the non-specific binding.
Data evaluation: the BIAevaluation software was used. RI and Rmax were controlled, double referencing were done (0 concentration and start point). Analyses were performed to achieve the best curve fitting and small chi^2 (<1).

HIV-1SF162 = format: cell-based; details: peptide at 30 μg/ml, FIG. 49
Procedure: FIG. 49 is a bar graph showing the ability of peptide […]-NH2 (SEQ ID NO: 8) to block neutralization of HIV-1 by 4E10. Replication competent HIV-1 (SF 162 and JR-CSF), produced in human PBMCs, were assayed for neutralization by 4E10 (100 μg/ml) in TZM-b1 cells, in the presence (white bars) or absence (black bars) of an excess of peptide.
To further investigate the interaction of peptide analogs and 4E10, the inhibitory effect of the best analogs on neutralization by 4E10 was assessed. Neutralization assays were performed in two different formats. In the first, replication competent HIV-1SF162 was assayed for neutralization using TZM-b1 cells as indicator cells (Wei, X., 2002). Alternatively, a pseudotype assay was used in which recombinant HIV-1JR-CSF virions, competent for a single round of infection, were generated using the luciferase reporter plasmid pNL4-3.Luc.R-E-, as described previously (Connor, R. I., 1995; Zwick, M. B., 2003), and the pseudovirus assayed for neutralization using U87.CD4.CCR5 cells as target cells (Bjorndal, A., 1997). In all cases, the competitor peptide ([…]-NH2; SEQ ID NO: 8) and IgG 4E10 were pre-incubated for 30 minutes at 37° C. […] The degree of virus neutralization was determined as a percentage reduction of viral infectivity against an Ab-free control. […]

NWFDITNWLWYIKKKK [Peptide 94-1, NWFDITNWLWYIKKKK-NH2]
improvement in 4E10 binding (IC50) over the starting peptide NWFDITNWLWKKKK-NH2 (IgG 4E10): 4 fold
improvement in IC50 compared to KGND (IgG 4E10): over 1000 fold
IC50 (IgG 4E10; Table 5, unconstrained peptide analogs, 4E10 binding, read-out: IC50): 10 nM
IC50 (IgG 4E10; Table 7, 4E10 peptide epitopes, read-out: IC50): 10 nM
higher affinity of 4E10 than to the original peptide KGND (IgG 4E10; as determined by surface plasmon resonance and ELISA): approximately 10^3 fold
IC50 (IgG 4E10; read-out: IC50 (4E10 binding, competitive ELISA)): 10 nM
higher affinity of 4E10 than to peptide 33-1 (Fab 4E10; Table 7): about 17 fold
koff (Fab 4E10; Table 7): 0.0138 s⁻¹
kon (Fab 4E10; Table 7): 691000 M⁻¹ s⁻¹
Kd (Fab 4E10; Table 7, 4E10 peptide epitopes, read-out: Kd): 20 nM
Kd (Fab 4E10; read-out: Kd (Biacore)): 18 nM
block of neutralization by 4E10 (HIV-1SF162): could block the neutralization
